What was measured:
[1] = biological target: T1, Alpha-1B adrenergic receptor (Rattus norvegicus, UniProt P15823); assay: DRUGMATRIX: Alpha-1B adrenergic receptor radioligand binding (ligand: prazosin); assay type: cell membranes, Wistar, Liver, Membrane; settings: Not Active = under 50% inhibition at 10 µM
T1 sequence (P15823 whole entry): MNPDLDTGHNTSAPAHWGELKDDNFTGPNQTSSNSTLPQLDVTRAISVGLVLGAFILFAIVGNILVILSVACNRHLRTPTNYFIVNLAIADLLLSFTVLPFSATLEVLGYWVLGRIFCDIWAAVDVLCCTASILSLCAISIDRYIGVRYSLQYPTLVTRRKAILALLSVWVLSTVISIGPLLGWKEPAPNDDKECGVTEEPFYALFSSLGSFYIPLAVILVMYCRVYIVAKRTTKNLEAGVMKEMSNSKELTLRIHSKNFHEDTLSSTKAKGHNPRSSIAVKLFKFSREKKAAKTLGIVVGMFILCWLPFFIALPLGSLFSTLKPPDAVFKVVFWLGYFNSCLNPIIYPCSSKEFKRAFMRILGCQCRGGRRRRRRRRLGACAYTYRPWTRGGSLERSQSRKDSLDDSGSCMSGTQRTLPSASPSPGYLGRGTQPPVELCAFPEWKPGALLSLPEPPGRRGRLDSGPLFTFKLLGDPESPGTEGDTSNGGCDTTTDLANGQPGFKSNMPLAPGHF

[2] = DRUGMATRIX: Leukotriene, BLT (LTB4) radioligand binding (ligand: [3H]LTB4); assay type: cell membranes, Membrane; settings: u-937; Not Active = under 50% inhibition at 10 µM
[3] = DRUGMATRIX: Sodium/nucleoside co-transporter radioligand binding (ligand: nitrobenzylthioinosine); assay type: cell membranes, Cavia porcellus, Dunkin-Hartley, Cerebral cortex, Membrane; settings: Not Active = under 50% inhibition at 10 µM
Cathepsin G = biological target: T2, Cathepsin G (Homo sapiens, UniProt P08311); assay type: tissue-based; settings: neutrophil;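 note: inhibition of Cathepsin G enzyme activity, tested on an AMC-conjugated peptide substrate; in other assays of this panel Not Active means under 50% inhibition at 10 µM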
T2 sequence (P08311 whole entry): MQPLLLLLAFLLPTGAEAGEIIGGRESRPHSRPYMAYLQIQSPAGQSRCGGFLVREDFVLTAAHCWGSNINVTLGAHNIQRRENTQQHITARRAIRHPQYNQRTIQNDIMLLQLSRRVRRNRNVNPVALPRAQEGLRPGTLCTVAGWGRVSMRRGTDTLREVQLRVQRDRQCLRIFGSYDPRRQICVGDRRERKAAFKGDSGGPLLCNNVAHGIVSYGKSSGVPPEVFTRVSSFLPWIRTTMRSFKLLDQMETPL

[4] = biological target: Sigma non-opioid intracellular receptor 1 (Homo sapiens, UniProt Q99720); assay: DRUGMATRIX: Sigma1 radioligand binding (ligand: [3H] Haloperidol); assay type: cell membranes, Jurkat, Membrane; settings: jurkat; Not Active = under 50% inhibition at 10 µM
[5] = biological target: T3, Alpha-2A adrenergic receptor (Homo sapiens, UniProt P08913); assay type: cell membranes, Sf9, Membrane; settings: sf9; note: in other assays of this panel Not Active means under 50% inhibition at 10 µM
T3 sequence (P08913 whole entry): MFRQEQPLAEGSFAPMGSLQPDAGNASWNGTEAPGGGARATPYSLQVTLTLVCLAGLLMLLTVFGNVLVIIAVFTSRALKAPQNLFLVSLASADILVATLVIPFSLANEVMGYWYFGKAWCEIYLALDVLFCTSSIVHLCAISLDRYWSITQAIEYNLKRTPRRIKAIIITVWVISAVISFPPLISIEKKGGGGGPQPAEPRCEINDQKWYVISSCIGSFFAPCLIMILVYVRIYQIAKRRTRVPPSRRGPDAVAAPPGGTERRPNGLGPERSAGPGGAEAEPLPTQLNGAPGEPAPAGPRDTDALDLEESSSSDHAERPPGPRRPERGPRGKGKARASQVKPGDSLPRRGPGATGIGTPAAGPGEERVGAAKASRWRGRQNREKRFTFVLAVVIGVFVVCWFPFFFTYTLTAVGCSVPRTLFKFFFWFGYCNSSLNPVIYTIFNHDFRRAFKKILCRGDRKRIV

Sequence of Sigma non-opioid intracellular receptor 1 (Q99720 whole entry): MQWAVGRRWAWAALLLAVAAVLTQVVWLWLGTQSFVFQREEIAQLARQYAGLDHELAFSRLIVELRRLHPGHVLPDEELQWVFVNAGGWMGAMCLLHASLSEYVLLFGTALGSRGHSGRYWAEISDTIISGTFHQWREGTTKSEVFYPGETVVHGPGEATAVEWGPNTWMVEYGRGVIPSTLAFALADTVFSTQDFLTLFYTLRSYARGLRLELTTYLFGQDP

Compound | IC50 [1] | IC50 [2] | Ki [2] | IC50 [3] | Ki [3] | IC50 (Cathepsin G) | IC50 [4] | IC50 [5] | Ki [1] | Ki (Cathepsin G) | Ki [4] | IC50 ([5]; read-out: IC50) | Ki ([5]; read-out: Ki) | Ki [5]
Oc1cccc(O)c1O [PYROGALLOL] | Not Active | Not Active | Not Active | Not Active | Not Active | Not Active | Not Active | Not Active | – | – | – | – | – | –
AURANOFIN | Not Active | Not Active | Not Active | Not Active | Not Active | Not Active | Not Active | – | Not Active | Not Active | Not Active | 884 nM | 331 nM | –
GADOPENTETATE DIMEGLUMINE | Not Active | Not Active | Not Active | Not Active | Not Active | Not Active | Not Active | Not Active | Not Active | Not Active | Not Active | – | – | Not Active
GENTAMICIN | Not Active | Not Active | Not Active | Not Active | Not Active | Not Active | Not Active | Not Active | Not Active | Not Active | Not Active | – | – | Not Active
GRAMICIDIN | Not Active | Not Active | Not Active | Not Active | Not Active | Not Active | Not Active | Not Active | Not Active | Not Active | Not Active | – | – | Not Active
NYSTATIN | Not Active | Not Active | Not Active | Not Active | Not Active | Not Active | Not Active | Not Active | Not Active | Not Active | Not Active | – | – | Not Active

Source: ChEMBL document CHEMBL1909046, “DrugMatrix in vitro pharmacology data”
